The subject of one test is M. tuberculosis M-149. Briefly: MIC against M. tuberculosis strains, agar dilution. Type of test: cell-based, Mycobacterium tuberculosis. Conditions: Middle Brook 7H10 + OADC, 37° C., 14-21 days. (Agar dilution tests growth on a series of plates holding different concentrations.)
Test [1] has as its system M. tuberculosis PC. Briefly: MIC against M. tuberculosis strains, agar dilution. The class given is cell-based, Mycobacterium tuberculosis. Conditions: S. No. 20 Mt-, Middle Brook 7H10 + OADC, 37° C., 14-21 days.
Another test has as its system M. tuberculosis SGPGI. Briefly: MIC against M. tuberculosis strains, agar dilution. The class given is cell-based, Mycobacterium tuberculosis. Conditions: S. No. 06 Mt-, Middle Brook 7H10 + OADC, 37° C., 14-21 days.
The next test concerns M. tuberculosis PC 4782. Briefly: MIC against M. tuberculosis strains, agar dilution. The class given is cell-based, Mycobacterium tuberculosis. Conditions: Middle Brook 7H10 + OADC, 37° C., 14-21 days.
Test [2] concerns M. avium intracellulare 1211/96. Briefly: MIC against MAC strains, agar dilution. Type of test: cell-based. Conditions: S. No. 13 Mai-5, M. avium intracellulare 1211/96; Middle Brook 7H10 + OADC, 37° C., 14-21 days.
The test system of test [3] is M. avium intracellulare 540/96. Briefly: MIC against MAC strains, agar dilution. Type of test: cell-based. Conditions: S. No. 12 Mai-4, M. avium intracellulare 540/96; Middle Brook 7H10 + OADC, 37° C., 14-21 days.
The subject of another test is M. tuberculosis 50. Briefly: MIC against M. tuberculosis strains, agar dilution. Conditions: S. No. 12 Mt-, Middle Brook 7H10 + OADC, 37° C., 14-21 days. Type of test: cell-based, Mycobacterium tuberculosis.
Test [4] relates to M. tuberculosis PC. Briefly: MIC against M. tuberculosis strains, agar dilution. Conditions: S. No. 19 Mt-, Middle Brook 7H10 + OADC, 37° C., 14-21 days. The class given is cell-based, Mycobacterium tuberculosis.
The test system of another test is M. tuberculosis M-168. Briefly: MIC against M. tuberculosis strains, agar dilution. Type of test: cell-based, Mycobacterium tuberculosis. Conditions: Middle Brook 7H10 + OADC, 37° C., 14-21 days.
A further test relates to M. intracellulare F21/12. Briefly: MIC against MAC strains, agar dilution. Type of test: cell-based. Conditions: S. No. 08 Mi-3, M. intracellulare F21/12; Middle Brook 7H10 + OADC, 37° C., 14-21 days.
In the next test the test system is M. tuberculosis M-164. Briefly: MIC against M. tuberculosis strains, agar dilution. Type of test: cell-based, Mycobacterium tuberculosis. Conditions: Middle Brook 7H10 + OADC, 37° C., 14-21 days.
Test [5] deals with M. avium intracellulare 356/97. Briefly: MIC against MAC strains, agar dilution. The class given is cell-based. Conditions: S. No. 10 Mai-1, M. avium intracellulare 356/97; Middle Brook 7H10 + OADC, 37° C., 14-21 days.
The test system of test [6] is M. tuberculosis PC. Briefly: MIC against M. tuberculosis strains, agar dilution. The class given is cell-based, Mycobacterium tuberculosis. Conditions: S. No. 17 Mt-, Middle Brook 7H10 + OADC, 37° C., 14-21 days.
Test [7] deals with M. avium intracellulare 559/97. Briefly: MIC against MAC strains, agar dilution. Conditions: S. No. 15 Mai-7, M. avium intracellulare 559/97; Middle Brook 7H10 + OADC, 37° C., 14-21 days. Type of test: cell-based.
Another test has as its system M. tuberculosis PC 4793. Briefly: MIC against M. tuberculosis strains, agar dilution. The class given is cell-based, Mycobacterium tuberculosis. Conditions: Middle Brook 7H10 + OADC, 37° C., 14-21 days.
The test system of the next test is M avium ATCC 700897. Briefly: MIC against MAC strains, agar dilution. Conditions: S. No. 05 Ma-6, M avium ATCC 700897; Middle Brook 7H10 + OADC, 37° C., 14-21 days. The class given is cell-based, Mycobacterium avium.
For a further test, the system named is M. avium ATCC 49601. Briefly: MIC against MAC strains, agar dilution. Type of test: cell-based, Mycobacterium avium. Conditions: S. No. 01 Ma-1, M. avium ATCC 49601, Middle Brook 7H10 + OADC, 37° C., 14-21 days.
Another test concerns H. influenzae 1745. Briefly: MIC against Haemophilus strains. The class given is cell-based. Conditions: Haemophilus influenzae; s. No. 9, H. influenzae 1745; read-out: MIC.
The subject of a further test is H. influenzae P318. Briefly: MIC against Haemophilus strains. The class given is cell-based. Conditions: Haemophilus influenzae; s. No. 10, H. influenzae P318; read-out: MIC.
In the next test the test system is H. influenzae βIac. Briefly: MIC against Haemophilus strains. The class given is cell-based. Conditions: Haemophilus influenzae; s. No. 3, H. influenzae βIac; read-out: MIC.
For the next test, the system named is S. warnerii ST360. Briefly: MIC, agar incorporation method. Type of test: cell-based.
The subject of a further test is H. influenzae R. Briefly: MIC against Haemophilus strains. The class given is cell-based. Conditions: Haemophilus influenzae; s. No. 4, H. influenzae R; read-out: MIC.
The next test concerns E. faecalis 5B (VRE). Briefly: MIC, agar incorporation method. The class given is cell-based. Conditions: Enterococcus faecalis, VRE.
The subject of a further test is H. influenzae 1381. Briefly: MIC against Haemophilus strains. Conditions: Haemophilus influenzae; s. No. 7, H. influenzae 1381; read-out: MIC. Type of test: cell-based.
The test system of another test is H. influenzae ATCC 49247. Briefly: MIC against Haemophilus strains. The class given is cell-based. Conditions: Haemophilus influenzae, ATCC49247; s. No. 2, H. influenzae ATCC 49247; read-out: MIC.
The subject of a further test is H. influenzae 474. Briefly: MIC against Haemophilus strains. Type of test: cell-based. Conditions: Haemophilus influenzae; s. No. 11, H. influenzae 474; read-out: MIC.
Setting [8] is: Mycobacterium tuberculosis, read-out: MIC.

In brackets after ≈: the same amount, converted by molar mass. Like-named read-outs stand apart in the source and are kept apart here. A value given as a limit tells only on which side of the number the result lay.

Take `CC[C@H]1OC(=O)[C@H](C)[C@@H](O[C@H]2C[C@@](C)(OC)[C@@H](O)[C@H](C)O2)[C@H](C)[C@@H](O[C@@H]2O[C@H](C)C[C@H](N(C)C)[C@H]2O)[C@](C)(OC)C[C@@H](C)C(=O)[C@H](C)[C@@H](O)[C@]1(C)O` [CLA]: the MIC in the test on M. tuberculosis M-149 (S. No. 15 Mt-) is 16 µg/mL; in the test on M. tuberculosis PC [1] it was 4.0 µg/mL; in the test with M. tuberculosis SGPGI, 32 µg/mL; in the test on M. tuberculosis PC 4782 (S. No. 21 Mt-), 16 µg/mL; in [2], 0.25 µg/mL; in test [3], more than 32 µg/mL. Besides, the MIC was 16 µg/mL with M. tuberculosis 50; 8.0 µg/mL in the test with M. tuberculosis PC [4]; 8.0 µg/mL in the test on M. tuberculosis M-168 (S. No. 09 Mt-); 1.0 µg/mL with M. intracellulare F21/12; 16 µg/mL with M. tuberculosis M-164 (S. No. 10 Mt-); 2.0 µg/mL in test [5]. In addition, the MIC in the test on M. tuberculosis PC [6] was 4.0 µg/mL; in test [7], 32 µg/mL; in the test with M. tuberculosis PC 4793 (S. No. 23 Mt-), 8.0 µg/mL; in the test on M avium ATCC 700897 it was 2.0 µg/mL; with M. avium ATCC 49601 it was less than 0.25 µg/mL.

For `CCc1cc(C(N)=S)ccn1` [ETH], the MIC in the test with M. tuberculosis M-149 (S. No. 15 Mt-) is more than 32 µg/mL; in the test on M. tuberculosis PC [1], 16 µg/mL; in the test with M. tuberculosis SGPGI, more than 32 µg/mL; with M. tuberculosis PC 4782 (S. No. 21 Mt-), 1.0 µg/mL; in [2], 1.0 µg/mL; in [3], 32 µg/mL. For the same compound, the MIC in the test with M. tuberculosis 50 was 32 µg/mL; in the test on M. tuberculosis PC [4] it was 1.0 µg/mL; in the test on M. tuberculosis M-168 (S. No. 09 Mt-), more than 32 µg/mL; with M. intracellulare F21/12, 8.0 µg/mL; in the test on M. tuberculosis M-164 (S. No. 10 Mt-), more than 32 µg/mL; in test [5], 8.0 µg/mL. Further, the MIC is 32 µg/mL in the test on M. tuberculosis PC [6]; more than 32 µg/mL in test [7]; more than 32 µg/mL with M. tuberculosis PC 4793 (S. No. 23 Mt-); more than 32 µg/mL in the test with M avium ATCC 700897; 4.0 µg/mL in the test with M. avium ATCC 49601.

Turning to `NNC(=O)c1ccncc1` [INH], the MIC came to 8.0 µg/mL in the test with M. tuberculosis M-149 (S. No. 15 Mt-); 16 µg/mL with M. tuberculosis PC [1]; 16 µg/mL in the test with M. tuberculosis SGPGI; 0.25 µg/mL in the test with M. tuberculosis PC 4782 (S. No. 21 Mt-); 32 µg/mL in test [2]; 4.0 µg/mL in test [3]. For the same compound, the MIC in the test on M. tuberculosis 50 was more than 32 µg/mL; in the test with M. tuberculosis PC [4], 0.25 µg/mL; in the test on M. tuberculosis M-168 (S. No. 09 Mt-), 4.0 µg/mL; in the test on M. intracellulare F21/12 it was 32 µg/mL; with M. tuberculosis M-164 (S. No. 10 Mt-) it was more than 32 µg/mL; in test [5], 4.0 µg/mL. Besides, the MIC in the test with M. tuberculosis PC [6] is 32 µg/mL; in [7] it was more than 32 µg/mL; in the test with M. tuberculosis PC 4793 (S. No. 23 Mt-) it was more than 32 µg/mL; in the test on M avium ATCC 700897, 4.0 µg/mL; in the test with M. avium ATCC 49601, more than 32 µg/mL.

With `CC(=O)NC[C@H]1CN(c2ccc(N3CCOCC3)c(F)c2)C(=O)O1` [Linezolid, reference compound], the MIC in the test on H. influenzae 1745 is 16 µg/mL (≈ 47.4 µM); with M. tuberculosis M-149 (Mycobacterium tuberculosis, M149, S. No. 15 Mt-, read-out: MIC), 32 µg/mL; in the test on M. tuberculosis PC [1] (setting [8]) it was 32 µg/mL; in the test on H. influenzae P318, 16 µg/mL (≈ 47.4 µM); with H. influenzae βIac, 8 µg/mL (≈ 23.7 µM); in the test on M. tuberculosis SGPGI (setting [8]), more than 32 µg/mL. For the same compound, the MIC with M. tuberculosis PC 4782 (Mycobacterium tuberculosis, PC4782, S. No. 21 Mt-, read-out: MIC) was 1 µg/mL; in the test on S. warnerii ST360, less than 0.5 µg/mL; in the test on H. influenzae R, 16 µg/mL (≈ 47.4 µM); with M. tuberculosis 50 (setting [8]) it was more than 32 µg/mL; with M. tuberculosis PC [4] (setting [8]) it was 0.5 µg/mL; in the test on M. tuberculosis M-168 (Mycobacterium tuberculosis, M168, S. No. 09 Mt-, read-out: MIC), 4 µg/mL. The MIC in the test with E. faecalis 5B (VRE) was 2 µg/mL (≈ 5.93 µM); in the test on M. tuberculosis M-164 (Mycobacterium tuberculosis, M164, S. No. 10 Mt-, read-out: MIC), 32 µg/mL; with H. influenzae 1381, 16 µg/mL (≈ 47.4 µM); in the test on H. influenzae ATCC 49247, 8 µg/mL (≈ 23.7 µM); in the test on M. tuberculosis PC [6] (setting [8]), 32 µg/mL; with H. influenzae 474 it was 16 µg/mL (≈ 47.4 µM). In addition, the MIC in the test with M. tuberculosis PC 4793 (Mycobacterium tuberculosis, PC4793, S. No. 23 Mt-, read-out: MIC) worked out at 8 µg/mL; with M. avium ATCC 49601 (Mycobacterium avium, ATCC49601, read-out: MIC) it was 0.5 µg/mL.

On to `CO[C@H]1/C=C/O[C@@]2(C)Oc3c(C)c(O)c4c(O)c(c(/C=N/N5CCN(C)CC5)c(O)c4c3C2=O)NC(=O)/C(C)=C\C=C\[C@H](C)[C@H](O)[C@@H](C)[C@@H](O)[C@@H](C)[C@H](OC(C)=O)[C@@H]1C` [RIF], for which the MIC was more than 32 µg/mL with M. tuberculosis M-149 (S. No. 15 Mt-); 2.0 µg/mL in the test on M. tuberculosis PC [1]; more than 32 µg/mL with M. tuberculosis SGPGI; 0.06 µg/mL with M. tuberculosis PC 4782 (S. No. 21 Mt-); 0.25 µg/mL in test [2]; more than 32 µg/mL in [3]. Besides, the MIC in the test with M. tuberculosis 50 is more than 32 µg/mL; in the test on M. tuberculosis PC [4], 0.06 µg/mL; in the test on M. tuberculosis M-168 (S. No. 09 Mt-), 16 µg/mL; in the test on M. intracellulare F21/12, 4.0 µg/mL; in the test with M. tuberculosis M-164 (S. No. 10 Mt-) it was more than 32 µg/mL; in test [5], 0.5 µg/mL. Also, the MIC in the test with M. tuberculosis PC [6] was 2.0 µg/mL; in test [7], more than 32 µg/mL; with M. tuberculosis PC 4793 (S. No. 23 Mt-) it was 2.0 µg/mL; in the test with M avium ATCC 700897, 1.0 µg/mL; in the test with M. avium ATCC 49601, less than 0.03 µg/mL.

The values are drawn from US20060293307A1, “Oxazolidinone derivatives as antimicrobials” (priority 2002, published 2006).
